According to BindingDB's records for doi:10.1016/j.bmc.2019.02.015 (2019):

Assays:
[1] = Inhibition of mouse GAT-2 expressed in HEK293 cells assessed as decrease in [3H]GABA uptake preincubated for 25 mins followed by [3H]GABA addition and measured after 10 mins by scintillation counting analysis
[2] = Inhibition of mouse GAT-3 expressed in HEK293 cells assessed as decrease in [3H]GABA uptake preincubated for 25 mins followed by [3H]GABA addition and measured after 4 mins by scintillation counting analysis

IC50 [1] | IC50 [2] | SMILES
17.8 µM | – | O=C(O)C1CCCN(CCON=Cc2cc(F)ccc2-c2ccc(Cl)cc2Cl)C1 (stereo unspecified)
38 µM | 91.2 µM | O=C(O)C1CCCN(CCON=Cc2sccc2-c2ccc(Cl)cc2Cl)C1 (stereo unspecified)
45.7 µM | – | O=C(O)C1CCCN(CCON=Cc2ccccc2-c2ccc(Cl)cc2Cl)C1 (stereo unspecified)
42.7 µM | 57.5 µM | O=C(O)[C@@H]1CCCN(CCON=Cc2ccccc2-c2ccc(Cl)cc2Cl)C1
